This passage reports Activity results from ChEMBL document CHEMBL2074408, “Altered pharmacokinetics of vinblastine in Mdr1a P-glycoprotein-deficient Mice” (J Natl Cancer Inst, 1996).

This series has as its target ATP-dependent translocase ABCB1 (Mus musculus, UniProt P21447). As to the kind of experiment: TP_TRANSPORTER: increase in brain concentration in mdr1a(-/-) mouse. It is filed as functional, organism-based. The settings on record: in vivo.

Sequence of ATP-dependent translocase ABCB1 (P21447 whole entry): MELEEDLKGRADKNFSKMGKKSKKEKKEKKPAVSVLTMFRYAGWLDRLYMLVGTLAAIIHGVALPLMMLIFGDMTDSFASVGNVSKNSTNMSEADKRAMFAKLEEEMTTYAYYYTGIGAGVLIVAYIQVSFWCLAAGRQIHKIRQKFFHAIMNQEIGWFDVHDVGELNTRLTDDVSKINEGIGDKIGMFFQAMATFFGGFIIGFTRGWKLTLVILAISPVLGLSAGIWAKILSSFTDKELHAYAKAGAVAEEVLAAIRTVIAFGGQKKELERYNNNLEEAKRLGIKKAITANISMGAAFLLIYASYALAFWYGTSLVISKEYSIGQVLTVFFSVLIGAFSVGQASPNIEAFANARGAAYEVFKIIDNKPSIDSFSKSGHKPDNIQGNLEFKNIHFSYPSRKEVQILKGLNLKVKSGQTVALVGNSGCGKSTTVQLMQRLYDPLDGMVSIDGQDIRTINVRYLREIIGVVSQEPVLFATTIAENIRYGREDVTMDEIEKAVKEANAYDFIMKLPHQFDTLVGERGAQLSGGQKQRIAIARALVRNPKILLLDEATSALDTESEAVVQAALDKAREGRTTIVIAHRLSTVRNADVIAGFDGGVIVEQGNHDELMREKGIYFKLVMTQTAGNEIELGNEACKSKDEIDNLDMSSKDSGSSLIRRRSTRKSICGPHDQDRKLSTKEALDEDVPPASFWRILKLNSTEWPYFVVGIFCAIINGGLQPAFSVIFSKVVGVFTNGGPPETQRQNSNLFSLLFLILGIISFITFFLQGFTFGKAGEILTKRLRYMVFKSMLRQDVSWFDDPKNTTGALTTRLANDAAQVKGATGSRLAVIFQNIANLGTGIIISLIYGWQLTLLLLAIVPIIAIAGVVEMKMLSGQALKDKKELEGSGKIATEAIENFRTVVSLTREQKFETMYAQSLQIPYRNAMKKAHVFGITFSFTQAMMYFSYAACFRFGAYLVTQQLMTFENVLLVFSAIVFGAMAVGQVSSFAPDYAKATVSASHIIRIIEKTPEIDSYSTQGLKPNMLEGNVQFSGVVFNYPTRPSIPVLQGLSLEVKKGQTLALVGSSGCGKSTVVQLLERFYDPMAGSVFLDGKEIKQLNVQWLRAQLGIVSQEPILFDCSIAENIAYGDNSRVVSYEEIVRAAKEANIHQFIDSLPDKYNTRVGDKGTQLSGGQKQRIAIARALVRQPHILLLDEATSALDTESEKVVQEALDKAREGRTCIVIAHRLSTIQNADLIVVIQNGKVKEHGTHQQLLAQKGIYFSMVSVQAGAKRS

As to `CC[C@]1(O)C[C@H]2CN(CCc3c([nH]c4ccccc34)[C@@](C(=O)OC)(c3cc4c(cc3OC)N(C=O)[C@H]3[C@@](O)(C(=O)OC)[C@H](OC(C)=O)[C@]5(CC)C=CCN6CC[C@]43[C@@H]65)C2)C1` [VINCRISTINE], the Activity entry is “substrate [+]”.
